Drawing on patent US10570149B2, “Tricyclic heterocylic derivatives” (MERCK PATENT GMBH, priority 2016, dated 2020), this text covers IC50 for 22 molecules.

The target in the assay is T1, ATR/ATRIP (Homo sapiens, UniProt Q13535).
T1 construct: human ATR, full length, GenBank ID: NM_001184.3; p53: Sf21 insect cells
T1 sequence (Q13535 whole entry): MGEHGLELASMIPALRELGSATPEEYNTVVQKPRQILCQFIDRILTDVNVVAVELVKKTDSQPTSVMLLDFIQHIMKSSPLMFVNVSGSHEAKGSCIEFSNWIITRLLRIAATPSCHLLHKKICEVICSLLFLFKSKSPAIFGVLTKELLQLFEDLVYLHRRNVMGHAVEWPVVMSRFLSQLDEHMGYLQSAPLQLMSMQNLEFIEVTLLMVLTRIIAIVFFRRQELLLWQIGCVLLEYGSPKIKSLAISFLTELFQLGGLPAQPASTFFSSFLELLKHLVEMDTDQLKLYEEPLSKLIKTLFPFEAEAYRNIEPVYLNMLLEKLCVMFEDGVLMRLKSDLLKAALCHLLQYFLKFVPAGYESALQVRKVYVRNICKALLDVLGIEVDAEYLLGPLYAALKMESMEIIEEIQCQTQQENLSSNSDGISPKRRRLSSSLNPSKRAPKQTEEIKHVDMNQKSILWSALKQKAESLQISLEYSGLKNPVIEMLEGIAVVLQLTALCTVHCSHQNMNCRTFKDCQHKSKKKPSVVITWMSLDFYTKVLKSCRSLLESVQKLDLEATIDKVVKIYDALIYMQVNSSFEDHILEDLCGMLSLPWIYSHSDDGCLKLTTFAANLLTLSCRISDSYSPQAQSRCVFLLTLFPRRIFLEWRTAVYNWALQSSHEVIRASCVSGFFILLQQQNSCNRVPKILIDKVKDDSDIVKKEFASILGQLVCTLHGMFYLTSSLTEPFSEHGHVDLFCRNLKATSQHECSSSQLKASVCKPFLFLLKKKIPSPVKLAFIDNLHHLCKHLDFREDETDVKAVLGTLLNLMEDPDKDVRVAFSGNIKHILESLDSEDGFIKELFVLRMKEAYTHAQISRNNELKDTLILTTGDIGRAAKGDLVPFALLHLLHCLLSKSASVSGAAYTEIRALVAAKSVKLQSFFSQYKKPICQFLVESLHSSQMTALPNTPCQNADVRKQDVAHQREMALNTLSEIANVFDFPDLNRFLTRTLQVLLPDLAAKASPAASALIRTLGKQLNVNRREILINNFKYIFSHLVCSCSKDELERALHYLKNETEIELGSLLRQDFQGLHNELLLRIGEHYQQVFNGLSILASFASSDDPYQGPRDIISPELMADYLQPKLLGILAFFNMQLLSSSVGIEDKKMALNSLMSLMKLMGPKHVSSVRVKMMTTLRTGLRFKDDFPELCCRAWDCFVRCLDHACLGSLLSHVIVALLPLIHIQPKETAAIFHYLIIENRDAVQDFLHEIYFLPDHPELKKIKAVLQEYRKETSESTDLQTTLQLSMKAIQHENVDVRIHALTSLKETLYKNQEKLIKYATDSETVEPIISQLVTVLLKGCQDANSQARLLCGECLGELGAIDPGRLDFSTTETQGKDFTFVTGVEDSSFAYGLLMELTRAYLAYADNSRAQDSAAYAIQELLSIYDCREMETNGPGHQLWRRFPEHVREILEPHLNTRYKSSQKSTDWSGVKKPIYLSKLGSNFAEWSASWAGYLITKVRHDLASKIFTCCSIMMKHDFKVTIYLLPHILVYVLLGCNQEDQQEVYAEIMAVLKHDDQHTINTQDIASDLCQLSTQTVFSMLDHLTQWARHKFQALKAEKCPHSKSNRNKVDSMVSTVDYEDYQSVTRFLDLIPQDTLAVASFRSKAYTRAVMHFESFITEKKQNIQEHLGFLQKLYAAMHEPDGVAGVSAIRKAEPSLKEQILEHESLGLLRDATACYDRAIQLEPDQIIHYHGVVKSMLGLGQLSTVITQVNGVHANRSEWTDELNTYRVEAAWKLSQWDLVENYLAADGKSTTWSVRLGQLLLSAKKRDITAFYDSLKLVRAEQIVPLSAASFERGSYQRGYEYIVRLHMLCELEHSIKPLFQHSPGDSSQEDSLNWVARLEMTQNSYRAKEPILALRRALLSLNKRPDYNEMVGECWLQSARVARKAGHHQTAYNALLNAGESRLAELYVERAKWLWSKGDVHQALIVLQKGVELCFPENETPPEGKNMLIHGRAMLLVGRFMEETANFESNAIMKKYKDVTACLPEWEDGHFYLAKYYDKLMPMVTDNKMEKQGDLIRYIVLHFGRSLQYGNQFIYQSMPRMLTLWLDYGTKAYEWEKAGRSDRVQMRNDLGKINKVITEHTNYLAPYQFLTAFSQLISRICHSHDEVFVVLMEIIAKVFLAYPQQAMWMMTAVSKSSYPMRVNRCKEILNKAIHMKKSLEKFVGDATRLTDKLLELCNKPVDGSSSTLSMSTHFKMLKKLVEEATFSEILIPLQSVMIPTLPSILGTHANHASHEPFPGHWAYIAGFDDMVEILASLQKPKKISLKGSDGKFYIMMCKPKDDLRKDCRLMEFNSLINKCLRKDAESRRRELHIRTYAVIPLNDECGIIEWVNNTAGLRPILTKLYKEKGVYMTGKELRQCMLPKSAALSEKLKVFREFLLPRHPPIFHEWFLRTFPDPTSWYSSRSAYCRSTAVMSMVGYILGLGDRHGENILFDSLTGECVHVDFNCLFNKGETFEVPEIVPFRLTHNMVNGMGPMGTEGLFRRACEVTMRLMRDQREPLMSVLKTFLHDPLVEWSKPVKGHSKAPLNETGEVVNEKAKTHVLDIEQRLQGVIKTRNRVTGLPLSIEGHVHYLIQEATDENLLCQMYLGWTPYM
T1 sequence (Q8WXE1 whole entry partner): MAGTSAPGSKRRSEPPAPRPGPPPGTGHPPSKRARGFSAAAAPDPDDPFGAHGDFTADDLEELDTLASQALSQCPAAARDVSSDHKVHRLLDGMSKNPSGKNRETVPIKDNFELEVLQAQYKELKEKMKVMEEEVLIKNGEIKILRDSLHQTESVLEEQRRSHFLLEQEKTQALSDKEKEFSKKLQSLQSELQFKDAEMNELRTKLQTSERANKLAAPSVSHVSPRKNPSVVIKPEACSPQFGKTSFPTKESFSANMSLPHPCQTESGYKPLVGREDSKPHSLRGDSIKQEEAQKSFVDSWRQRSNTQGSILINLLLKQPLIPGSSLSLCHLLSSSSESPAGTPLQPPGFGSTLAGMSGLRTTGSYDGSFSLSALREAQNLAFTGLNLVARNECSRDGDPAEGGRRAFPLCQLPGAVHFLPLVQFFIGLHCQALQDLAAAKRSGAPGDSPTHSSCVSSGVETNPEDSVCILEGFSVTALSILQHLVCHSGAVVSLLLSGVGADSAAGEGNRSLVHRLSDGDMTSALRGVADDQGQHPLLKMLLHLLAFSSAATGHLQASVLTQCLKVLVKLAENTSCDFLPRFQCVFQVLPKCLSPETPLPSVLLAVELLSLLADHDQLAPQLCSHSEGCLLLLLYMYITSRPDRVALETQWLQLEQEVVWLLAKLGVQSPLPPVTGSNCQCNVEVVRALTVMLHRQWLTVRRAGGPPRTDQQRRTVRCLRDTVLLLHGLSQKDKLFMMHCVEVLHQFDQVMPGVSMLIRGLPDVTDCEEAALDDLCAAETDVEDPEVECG
Description: ATR/ATRIP kinase assay (TR-FRET, p53 phosphorylation). It counts as biochemical. As to conditions: Table 1, class symbols; read-out: ATR-ATRIP IC50. How it is done: ATR/ATRIP Kinase Assay—Measurement of ATR/ATRIP Inhibition
The IC50 value was determined by an ATR/ATRIP enzymatic assay. The assay comprises two steps: the enzymatic reaction and the detection step. First, a mixture of ATR/ATRIP protein (Ataxia Telangiectasia and Rad3-related protein/ATR interacting protein), the compound in question at different concentrations, p53 as substrate protein and adenosine triphosphate (ATP) are incubated in assay buffer. ATR phosphorylates p53 at Ser15 and other residues. The amount of phosphorylated p53 is then detected using specific antibodies and the TR-FRET assay technology.
In detail: The ATR/ATRIP enzymatic assay is performed as a TR-FRET-(HTRF™, Cisbio Bioassays) based 384-well assay. In a first step, purified human recombinant ATR/ATRIP (human ATR, full length, GenBank ID: NM_001184.3, and human ATRIP, full length, GenBank ID AF451323.1, co-expressed in a mammalian cell line) is incubated in assay buffer for 15 minutes at 22° C. with test compound at different concentrations or without test compound (as a negative control). The assay buffer contains 25 mM HEPES pH 8.0, 10 mM Mg(CH3COO)2, 1 mM MnCl2, 0.1% BSA, 0.01% Brij® 35, and 5 mM dithiothreitol (DTT). […] Then, in a second step, purified human recombinant cmyc-tagged p53 (human p53, full length, GenBank ID: BC003596, expressed in Sf21 insect cells) and ATP are added and the reaction mixture is incubated for 25-35 minutes, typically 25 minutes, at 22° C. The pharmacologically relevant assay volume is 5 μl. The final concentrations in the assay during incubation of the reaction mixture are 0.3-0.5 nM, typically 0.3 nM, ATR/ATRIP, 50 nM p53, and 0.5 μM ATP. The enzymatic reaction is stopped by the addition of EDTA. […] Following signal development for 2 h the plates are analyzed in an EnVision (PerkinElmer) microplate reader using the TRF mode with laser excitation. […] Data are processed employing the Genedata Screener software. In particular, IC50 values are determined in the usual manner by fitting a dose-response curve to the data points using nonlinear regression analysis.
Take `CNc1ncn(-c2nc3c(c(C(C)(C)S(C)(=O)=O)n2)OC[C@@H]2COC[C@@H](C)N32)n1` [A43]: the IC50 – broadly, the concentration that inhibits the measured activity by half – lay within 0.1 to 0.5 µM.

With `COC(=O)c1cn(Cc2nc(-c3ccnc4c3ccn4C)nc3c2OC[C@@H]2COC[C@@H](C)N32)nn1` [A19, 1-[(5R,8aS)-5-Methyl-3-(1-methyl-1H-pyrrolo[2,3-b]pyridin-4-yl)-5,6,8a,9-tetrahydro-8H-7,10-dioxa-2,4,4b-triaza-phenanthren-1-ylmethyl]-1H[1,2,3]triazole-4-carboxylic Acid Methyl Ester], the IC50 lay within 0.1 to 0.5 µM.

As for `CNCc1c[nH]c2ncc(F)c(-c3nc4c(c(C(C)(C)O)n3)OC[C@@H]3COC[C@@H](C)N43)c12` [A5, 2-[(5R,8aS)-3-(5-Fluoro-3-methylaminomethyl-1H-pyrrolo[2,3-b]pyridin-4-yl)-5-methyl-5,6,8a,9-tetrahydro-8H-7,10-dioxa-2,4,4b-triaza-phenanthren-1-yl]-propan-2-ol], the IC50 lay within 0.01 to 0.1 µM.

Turning to `C[C@@H]1COC[C@H]2COc3c(nc(Oc4cn[nH]c4)nc3C(C)(C)S(C)(=O)=O)N21` [A80, (5R,8aS)-1-(1-methanesulfonyl-1-methyl-ethyl)-5-methyl-3-(1H-pyrazol-4-yloxy)-5,6,8a,9-tetrahydro-8H-7,10-dioxa-2,4,4b-triaza-phenanthrene], the IC50 was in the range of 0.1 to 0.5 µM.

As for `C[C@@H]1COC[C@H]2COc3c(nc(Nc4cn[nH]c4)nc3C(C)(C)S(C)(=O)=O)N21` [A75, [(5R,8aS)-1-(1-methanesulfonyl-1-methyl-ethyl)-5-methyl-5,6,8a,9-tetrahydro-8H-7,10-dioxa-2,4,4b-triaza-phenanthren-3-yl]-(1H-pyrazol-4-yl)-amine], the IC50 is 0.01 to 0.1 µM.

Regarding `C[C@@H]1COC[C@H]2COc3c(nc(C(=O)N4CC[C@H](O)C4)nc3C(C)(C)S(C)(=O)=O)N21` [A48, ((S)-3-hydroxy-pyrrolidin-1-yl)-[(4bS,6R)-1-(1-methanesulfonyl-1-methyl-ethyl)-5-methyl-5,6,8a,9-tetrahydro-8H-7,10-dioxa-2,4,4b-triaza-phenanthren-3-yl]-methanone], the IC50 lay in the range of 0.5 to 30 µM.

Turning to `C[C@@H]1COC[C@H]2COc3c(nc(-n4cc(C#N)c5ccccc54)nc3C(C)(C)S(C)(=O)=O)N21` [A70, 1-[(5R,8aS)-1-(1-methanesulfonyl-1-methyl-ethyl)-5-methyl-5,6,8a,9-tetrahydro-8H-7,10-dioxa-2,4,4b-triaza-phenanthren-3-yl]-1H-indole-3-carbonitrile], the IC50 lay within 0.01 to 0.1 µM.

Consider `C[C@@H]1COC[C@H]2COc3c(nc(Nc4nc[nH]n4)nc3C(C)(C)S(C)(=O)=O)N21` [A79, [(5R,8aS)-1-(1-methanesulfonyl-1-methyl-ethyl)-5-methyl-5,6,8a,9-tetrahydro-8H-7,10-dioxa-2,4,4b-triaza-phenanthren-3-yl]-(1H[1,2,4]triazol-3-yl)-amine], for which the IC50 fell in the range of 0.01 to 0.1 µM.

Take `COc1cnc2[nH]ccc2c1-c1nc2c(c(C(C)(C)S(C)(=O)=O)n1)OC[C@@H]1COC[C@@H](C)N21` [A88, (10S,14R)-6-(2-methanesulfonylpropan-2-yl)-4-{5-methoxy-1H-pyrrolo[2,3-b]pyridin-4-yl}-14-methyl-8,12-dioxa-1,3,5-triazatricyclo[8.4.0.0^2,7]tetradeca-2,4,6-triene]: the IC50 lay in the range of 0.01 to 0.1 µM.

For the molecule `C[C@@H]1COC[C@H]2COc3c(nc(-c4c(C#N)cnc5[nH]ccc45)nc3C(C)(C)S(C)(=O)=O)N21` [A89, 4-[(10S,14R)-6-(2-methanesulfonylpropan-2-yl)-14-methyl-8,12-dioxa-1,3,5-triazatricyclo[8.4.0.0^{2,7}]tetradeca-2,4,6-trien-4-yl]-1H-pyrrolo[2,3-b]pyridine-5-carbonitrile], the IC50 was 0.001 to 0.01 µM.

Regarding `C[C@@H]1COC[C@H]2COc3c(nc(N(C)c4nc5ccccc5[nH]4)nc3C(C)(C)S(C)(=O)=O)N21` [A16, (1H-Benzimidazol-2-yl)-[(5R,8aS)-1-(1-methanesulfonyl-1-methyl-ethyl)-5-methyl-5,6,8a,9-tetrahydro-8H-7,10-dioxa-2,4,4b-triaza-phenanthren-3-yl]-methyl-amine], the IC50 fell in the range of 0.01 to 0.1 µM.

`C[C@@H]1COC[C@H]2COc3c(nc(C(=O)NC[C@@H](C)O)nc3C(C)(C)S(C)(=O)=O)N21` [A53, (4bS,6R)-1-(1-methanesulfonyl-1-methyl-ethyl)-5-methyl-5,6,8a,9-tetrahydro-8H-7,10-dioxa-2,4,4b-triaza-phenanthrene-3-carboxylic Acid ((R)-2-hydroxy-propyl)-amide]: the IC50 lay within 0.5 to 30 µM.

For `C[C@@H]1COC[C@H]2COc3c(nc(C(=O)Nc4ccn[nH]4)nc3C(C)(C)S(C)(=O)=O)N21` [A47, (4bS,6R)-1-(1-methanesulfonyl-1-methyl-ethyl)-5-methyl-5,6,8a,9-tetrahydro-8H-7,10-dioxa-2,4,4b-triaza-phenanthrene-3-carboxylic Acid (2H-pyrazol-3-yl)-amide], the IC50 lay in the range of 0.5 to 30 µM.

As to `C[C@H](O)CNC(=O)c1nc2c(c(C(C)(C)S(C)(=O)=O)n1)OC[C@@H]1COC[C@@H](C)N21` [A54, (4bS,6R)-1-(1-methanesulfonyl-1-methyl-ethyl)-5-methyl-5,6,8a,9-tetrahydro-8H-7,10-dioxa-2,4,4b-triaza-phenanthrene-3-carboxylic Acid ((S)-2-hydroxy-propyl)-amide], the IC50 lay in the range of 0.5 to 30 µM.

As for `CC(CO)NC(=O)c1nc2c(c(C(C)(C)S(C)(=O)=O)n1)OC[C@@H]1COC[C@@H](C)N21` (stereo partly drawn) [A56, (4bS,6R)-1-(1-methanesulfonyl-1-methyl-ethyl)-5-methyl-5,6,8a,9-tetrahydro-8H-7,10-dioxa-2,4,4b-triaza-phenanthrene-3-carboxylic Acid (2-hydroxy-1-methyl-ethyl)-amide], the IC50 was in the range of 0.5 to 30 µM.

As for `C[C@@H]1COC[C@H]2COc3c(nc(C(=O)N4CC[C@@H](O)C4)nc3C(C)(C)S(C)(=O)=O)N21` [A49, ((R)-3-hydroxy-pyrrolidin-1-yl)-[(4bS,6R)-1-(1-methanesulfonyl-1-methyl-ethyl)-5-methyl-5,6,8a,9-tetrahydro-8H-7,10-dioxa-2,4,4b-triaza-phenanthren-3-yl]-methanone], the IC50 lay within 0.5 to 30 µM.

Take `C[C@@H]1COC[C@H]2COc3c(nc(-c4c(F)ncc5c4ccn5C)nc3C(C)(C)S(C)(=O)=O)N21` [A38, (5R,8aS)-3-(5-fluoro-1-methyl-1H-pyrrolo[2,3-c]pyridin-4-yl)-1-(1-methanesulfonyl-1-methyl-ethyl)-5-methyl-5,6,8a,9-tetrahydro-8H-7,10-dioxa-2,4,4b-triaza-phenanthrene]: the IC50 lay in the range of 0.5 to 30 µM.

For the molecule `C[C@@H]1COC[C@H]2COc3c(nc(C(=O)Nc4nnc[nH]4)nc3C(C)(C)S(C)(=O)=O)N21` [A55, (4bS,6R)-1-(1-methanesulfonyl-1-methyl-ethyl)-5-methyl-5,6,8a,9-tetrahydro-8H-7,10-dioxa-2,4,4b-triaza-phenanthrene-3-carboxylic Acid (4H-[1,2,4]triazol-3-yl)-amide], the IC50 lay within 0.01 to 0.1 µM.

As to `C[C@@H]1COC[C@H]2COc3c(nc(N(C)c4nc5ccccc5[nH]4)nc3C(C)(C)O)N21` [A12, 2-{(5R,8aS)-3-[(1H-Benzimidazol-2-yl)-methyl-amino]-5-methyl-5,6,8a,9-tetrahydro-8H-7,10-dioxa-2,4,4b-triaza-phenanthren-1-yl}-propan-2-ol], the IC50 fell in the range of 0.01 to 0.1 µM.

On to `C[C@@H]1COC[C@H]2COc3c(nc(NCc4cn[nH]c4)nc3C(C)(C)S(C)(=O)=O)N21` [A65, [(5R,8aS)-1-(1-methanesulfonyl-1-methyl-ethyl)-5-methyl-5,6,8a,9-tetrahydro-8H-7,10-dioxa-2,4,4b-triaza-phenanthren-3-yl]-(1H-pyrazol-4-ylmethyl)-amine], for which the IC50 lay within 0.5 to 30 µM.

Regarding `C[C@@H]1COC[C@H]2COc3c(Cn4nncc4C(=O)O)nc(-c4ccnc5[nH]ccc45)nc3N21` [A2, 3-[(5R,8aS)-5-Methyl-3-(1H-pyrrolo[2,3-b]pyridin-4-yl)-5,6,8a,9-tetrahydro-8H-7,10-dioxa-2,4,4b-triaza-phenanthren-1-ylmethyl]-3H[1,2,3]triazole-4-carboxylic Acid], the IC50 lay in the range of 0.01 to 0.1 µM.

As for `C[C@@H]1COC[C@H]2COc3c(nc(-c4cncc(CO)c4)nc3C(C)(C)S(C)(=O)=O)N21` [A40, {5-[(5R,8aS)-1-(1-methanesulfonyl-1-methyl-ethyl)-5-methyl-5,6,8a,9-tetrahydro-8H-7,10-dioxa-2,4,4b-triaza-phenanthren-3-yl]-pyridin-3-yl}-methanol], the IC50 was 0.001 to 0.01 µM.
